In general, inhibition refers to the change of the read-out against control, counted positive when it falls.

This assay has as its target T1, rat B1R (bradykinin receptor 1) (Rattus norvegicus, UniProt P97583).
T1 construct: expressed in transfected cells; host or cells: CHO K1 cells
T1 sequence (P97583 1-337): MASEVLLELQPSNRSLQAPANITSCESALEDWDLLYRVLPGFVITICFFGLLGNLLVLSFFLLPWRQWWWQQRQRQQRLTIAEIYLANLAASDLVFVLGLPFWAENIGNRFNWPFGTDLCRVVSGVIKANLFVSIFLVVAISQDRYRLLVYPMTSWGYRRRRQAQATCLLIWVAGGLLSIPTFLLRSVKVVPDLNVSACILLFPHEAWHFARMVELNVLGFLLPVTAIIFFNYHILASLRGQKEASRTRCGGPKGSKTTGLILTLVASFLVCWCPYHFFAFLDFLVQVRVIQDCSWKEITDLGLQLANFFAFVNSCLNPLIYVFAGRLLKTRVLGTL
The experiment in a line: FLIPR Ca2+ assay (Fluo-4) on CHO K1 cells stably transfected with the B1R gene of the rat (rB1R cells): % inhibition at 10 μM / IC50, agonist Des-Arg9-bradykinin. In kind it is cell-based. Particulars: CHO-K1, rat B1R. An outline of the steps: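 Loading with Fluo-4 occurs for 60 min at 37 °C, or alternatively in buffer A, before FLIPR measurement. Compounds are applied, incubated 10–20 min, and then the EC80 agonist is added. Antagonism appears as reduced peak Ca2+ signal relative to maximal inhibition.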
With `Cn1cncc1CN1CCC2(CC1)CCN(C(=O)c1ccc3c(c1)C(N(C(=O)c1ccccc1Cl)C1CC1)CC3)C2` (stereo not shown) [IND_CC-536, 2-Chloro-N-cyclopropyl-N-[6-[8-[(3-methyl-3H-imidazol-4-yl)-methyl]-2,8-diazaspiro[4.5]decane-2-carbonyl]-2,3-dihydro-1H-inden-1-yl]-benzamide], the inhibition at 10 µM is 54%.

On to `O=C(c1ccc2c(c1)C(N(C(=O)c1ccccc1Cl)C1CC1)CC2)N1CCC2(CCN(Cc3ccc(F)cc3Cl)CC2)C1` (stereo not shown) [IND_CC-537, 2-Chloro-N-[6-[8-[(2-chloro-4-fluoro-phenyl)-methyl]-2,8-diazaspiro[4.5]-decane-2-carbonyl]-2,3-dihydro-1H-inden-1-yl]-N-cyclopropyl-benzamide], for which the inhibition at 10 µM stood at 62%.

Regarding `O=C(c1ccc2c(c1)C(N(C(=O)c1ccccc1Cl)C1CC1)CC2)N1CCC2(CCN(Cc3c(F)cccc3Cl)CC2)C1` (stereo not shown) [IND_CC-538, 2-Chloro-N-[6-[8-[(2-chloro-6-fluoro-phenyl)-methyl]-2,8-diazaspiro[4.5]-decane-2-carbonyl]-2,3-dihydro-1H-inden-1-yl]-N-cyclopropyl-benzamide], the inhibition at 10 µM came out at 72%.

For `N#Cc1ccc(CN2CCC3(CC2)CCN(C(=O)c2ccc4c(c2)C(N(C(=O)c2ccccc2Cl)C2CC2)CC4)C3)cc1` (stereo not shown) [IND_CC-539, 2-Chloro-N-[6-[8-[(4-cyano-phenyl)-methyl]-2,8-diazaspiro[4.5]decane-2-carbonyl]-2,3-dihydro-1H-inden-1-yl]-N-cyclopropyl-benzamide], the inhibition at 10 µM came to 75%.

In the case of `N#Cc1cccc(CN2CCC3(CC2)CCN(C(=O)c2ccc4c(c2)C(N(C(=O)c2ccccc2Cl)C2CC2)CC4)C3)c1` (stereo not shown) [IND_CC-540, 2-Chloro-N-[6-[8-[(3-cyano-phenyl)-methyl]-2,8-diazaspiro[4.5]decane-2-carbonyl]-2,3-dihydro-1H-inden-1-yl]-N-cyclopropyl-benzamide], the inhibition at 10 µM came out at 82%.

Turning to `N#Cc1ccccc1CN1CCC2(CC1)CCN(C(=O)c1ccc3c(c1)C(N(C(=O)c1ccccc1Cl)C1CC1)CC3)C2` (stereo not shown) [IND_CC-541, 2-Chloro-N-[6-[8-[(2-cyano-phenyl)-methyl]-2,8-diazaspiro[4.5]decane-2-carbonyl]-2,3-dihydro-1H-inden-1-yl]-N-cyclopropyl-benzamide], the inhibition at 10 µM came out at 65%.

On to `O=C(NC1CCc2ccc(C(=O)N3CCC4(CCN(Cc5cc(F)ccc5F)CC4)C3)cc21)c1ccccc1Cl` (stereo not shown) [IND_CC-543, 2-Chloro-N-[6-[8-[(2,5-difluoro-phenyl)-methyl]-2,8-diazaspiro[4.5]decane-2-carbonyl]-2,3-dihydro-1H-inden-1-yl]-benzamide], for which the inhibition at 10 µM stood at 102%.

As to `O=C(NC1CCc2ccc(C(=O)N3CCC4(CCN(Cc5ccc(F)cc5F)CC4)C3)cc21)c1ccccc1Cl` (stereo not shown) [IND_CC-544, 2-Chloro-N-[6-[8-[(2,4-difluoro-phenyl)-methyl]-2,8-diazaspiro[4.5]decane-2-carbonyl]-2,3-dihydro-1H-inden-1-yl]-benzamide], the inhibition at 10 µM amounted to 99%.

Consider `COc1ccc(CN2CCC3(CC2)CCN(C(=O)c2ccc4c(c2)C(NC(=O)c2ccccc2Cl)CC4)C3)cc1F` (stereo not shown) [IND_CC-545, 2-Chloro-N-[6-[8-[(3-fluoro-4-methoxy-phenyl)-methyl]-2,8-diazaspiro[4.5]decane-2-carbonyl]-2,3-dihydro-1H-inden-1-yl]-benzamide], for which the inhibition at 10 µM was determined as 105%.

Take `COc1cccc(F)c1CN1CCC2(CC1)CCN(C(=O)c1ccc3c(c1)C(NC(=O)c1ccccc1Cl)CC3)C2` (stereo not shown) [IND_CC-546, 2-Chloro-N-[6-[8-[(2-fluoro-6-methoxy-phenyl)-methyl]-2,8-diazaspiro[4.5]decane-2-carbonyl]-2,3-dihydro-1H-inden-1-yl]-benzamide]: the inhibition at 10 µM stood at 99%.

For `O=C(NC1CCc2ccc(C(=O)N3CCC4(CCN(Cc5cc(F)ccc5F)CC4)C3)cc21)c1sccc1Cl` (stereo not shown) [IND_CC-547, 3-Chloro-N-[6-[8-[(2,5-difluoro-phenyl)-methyl]-2,8-diazaspiro[4.5]decane-2-carbonyl]-2,3-dihydro-1H-inden-1-yl]-thiophene-2-carboxylic acid amide], the inhibition at 10 µM was 71%.

As to `COc1ccc(CN2CCC3(CC2)CCN(C(=O)c2ccc4c(c2)C(NC(=O)c2sccc2Cl)CC4)C3)cc1F` (stereo not shown) [IND_CC-548, 3-Chloro-N-[6-[8-[(3-fluoro-4-methoxy-phenyl)-methyl]-2,8-diazaspiro[4.5]decane-2-carbonyl]-2,3-dihydro-1H-inden-1-yl]-thiophene-2-carboxylic acid amide], the inhibition at 10 µM came to 66%.

As to `CN(C(=O)c1ccccc1Cl)C1CCc2ccc(C(=O)N3CCC4(CCN(Cc5ccc(F)c(F)c5)CC4)C3)cc21` (stereo not shown) [IND_CC-549, 2-Chloro-N-[6-[8-[(3,4-difluoro-phenyl)-methyl]-2,8-diazaspiro[4.5]decane-2-carbonyl]-2,3-dihydro-1H-inden-1-yl]-N-methyl-benzamide], the inhibition at 10 µM came to 60%.

As to `CN(C(=O)c1ccccc1Cl)C1CCc2ccc(C(=O)N3CCC4(CCN(Cc5cc(F)ccc5F)CC4)C3)cc21` (stereo not shown) [IND_CC-550, 2-Chloro-N-[6-[8-[(2,5-difluoro-phenyl)-methyl]-2,8-diazaspiro[4.5]decane-2-carbonyl]-2,3-dihydro-1H-inden-1-yl]-N-methyl-benzamide], the inhibition at 10 µM is 62%.

On to `CN(C(=O)c1ccccc1Cl)C1CCc2ccc(C(=O)N3CCC4(CCN(Cc5ccc(F)cc5F)CC4)C3)cc21` (stereo not shown) [IND_CC-551, 2-Chloro-N-[6-[8-[(2,4-difluoro-phenyl)-methyl]-2,8-diazaspiro[4.5]decane-2-carbonyl]-2,3-dihydro-1H-inden-1-yl]-N-methyl-benzamide], for which the inhibition at 10 µM came out at 55%.

As for `COc1ccc(CN2CCC3(CC2)CCN(C(=O)c2ccc4c(c2)C(N(C)C(=O)c2ccccc2Cl)CC4)C3)cc1F` (stereo not shown) [IND_CC-552, 2-Chloro-N-[6-[8-[(3-fluoro-4-methoxy-phenyl)-methyl]-2,8-diazaspiro[4.5]-decane-2-carbonyl]-2,3-dihydro-1H-inden-1-yl]-N-methyl-benzamide], the inhibition at 10 µM came out at 68%.

Regarding `Cc1nc(CN2CCC3(CC2)CCN(C(=O)c2ccc4c(c2)C(NC(=O)c2ccccc2Cl)CC4)C3)c[nH]1` (stereo not shown) [IND_CC-554, 2-Chloro-N-[6-[8-[(2-methyl-1H-imidazol-4-yl)-methyl]-2,8-diazaspiro[4.5]decane-2-carbonyl]-2,3-dihydro-1H-inden-1-yl]-benzamide], the inhibition at 10 µM was determined as 73%.

For `O=C(NC1CCc2ccc(C(=O)N3CCC4(CCN(Cc5csnn5)CC4)C3)cc21)c1ccccc1Cl` (stereo not shown) [IND_CC-555, 2-Chloro-N-[6-[8-([1,2,3]thiadiazol-4-yl-methyl)-2,8-diazaspiro[4.5]decane-2-carbonyl]-2,3-dihydro-1H-inden-1-yl]-benzamide], the inhibition at 10 µM turned out to be 91%.

As for `O=C(NC1CCc2ccc(C(=O)N3CCC4(CCN(Cc5c(F)cccc5Cl)CC4)C3)cc21)c1ccccc1Cl` (stereo not shown) [IND_CC-557, 2-Chloro-N-[6-[8-[(2-chloro-6-fluoro-phenyl)-methyl]-2,8-diazaspiro[4.5]decane-2-carbonyl]-2,3-dihydro-1H-inden-1-yl]-benzamide], the inhibition at 10 µM was determined as 103%.

For `CN(C(=O)c1ccccc1Cl)C1CCc2ccc(C(=O)N3CCC4(CCN(Cc5c(F)cccc5Cl)CC4)C3)cc21` (stereo not shown) [IND_CC-558, 2-Chloro-N-[6-[8-[(2-chloro-6-fluoro-phenyl)-methyl]-2,8-diazaspiro[4.5]-decane-2-carbonyl]-2,3-dihydro-1H-inden-1-yl]-N-methyl-benzamide], the inhibition at 10 µM worked out at 62%.

Regarding `Cc1c(CN2CCC3(CC2)CCN(C(=O)c2ccc4c(c2)C(NC(=O)c2ccccc2Cl)CC4)C3)cnn1C` (stereo not shown) [IND_CC-559, 2-Chloro-N-[6-[8-[(1,5-dimethyl-1H-pyrazol-4-yl)-methyl]-2,8-diazaspiro[4.5]decane-2-carbonyl]-2,3-dihydro-1H-inden-1-yl]-benzamide], the inhibition at 10 µM was determined as 56%.

As to `Cc1noc(C)c1CN1CCC2(CC1)CCN(C(=O)c1ccc3c(c1)C(NC(=O)c1ccccc1Cl)CC3)C2` (stereo not shown) [IND_CC-560, 2-Chloro-N-[6-[8-[(3,5-dimethyl-isoxazol-4-yl)-methyl]-2,8-diazaspiro[4.5]decane-2-carbonyl]-2,3-dihydro-1H-inden-1-yl]-benzamide], the inhibition at 10 µM turned out to be 95%.

On to `N#Cc1ccc(CN2CCC3(CC2)CCN(C(=O)c2ccc4c(c2)C(NC(=O)c2ccccc2Cl)CC4)C3)cc1` (stereo not shown) [IND_CC-561, 2-Chloro-N-[6-[8-[(4-cyano-phenyl)-methyl]-2,8-diazaspiro[4.5]decane-2-carbonyl]-2,3-dihydro-1H-inden-1-yl]-benzamide], for which the inhibition at 10 µM is 85%.

Regarding `N#Cc1ccccc1CN1CCC2(CC1)CCN(C(=O)c1ccc3c(c1)C(NC(=O)c1ccccc1Cl)CC3)C2` (stereo not shown) [IND_CC-563, 2-Chloro-N-[6-[8-[(2-cyano-phenyl)-methyl]-2,8-diazaspiro[4.5]decane-2-carbonyl]-2,3-dihydro-1H-inden-1-yl]-benzamide], the inhibition at 10 µM turned out to be 92%.

Regarding `Cc1nn(C)c(C)c1CN1CCC2(CC1)CCN(C(=O)c1ccc3c(c1)C(NC(=O)c1ccccc1Cl)CC3)C2` (stereo not shown) [IND_CC-564, 2-Chloro-N-[6-[8-[(1,3,5-trimethyl-1H-pyrazol-4-yl)-methyl]-2,8-diazaspiro[4.5]decane-2-carbonyl]-2,3-dihydro-1H-inden-1-yl]-benzamide], the inhibition at 10 µM came to 81%.

These data come from US8455475B2 (Gruenenthal GmbH, priority 2009, dated 2013).
